How the values were obtained:
[1] = target: Activin receptor type-1B (Homo sapiens) (UniProt P36896); settings: Compound concentration 1000.0 nM
[2] = target: Calcium/calmodulin-dependent protein kinase type IV (Homo sapiens) (UniProt Q16566); settings: Compound concentration 1000.0 nM
[3] = target: Calcium/calmodulin-dependent protein kinase kinase 2 (Homo sapiens) (UniProt Q96RR4); settings: Compound concentration 1000.0 nM
[4] = target: Cyclin-dependent kinase 19 (Homo sapiens) (UniProt Q9BWU1); settings: Compound concentration 1000.0 nM
[5] = target: Cyclin-dependent kinase 2 (Homo sapiens) (UniProt P24941); settings: Compound concentration 1000.0 nM
[6] = target: Citron Rho-interacting kinase (Homo sapiens) (UniProt O14578); settings: Compound concentration 1000.0 nM
[7] = target: Tyrosine-protein kinase CSK (Homo sapiens) (UniProt P41240); settings: Compound concentration 1000.0 nM
[8] = target: Casein kinase I isoform alpha (Homo sapiens) (UniProt P48729); settings: Compound concentration 1000.0 nM
[9] = target: Casein kinase I isoform delta (Homo sapiens) (UniProt P48730); settings: Compound concentration 1000.0 nM
[10] = target: Serine/threonine-protein kinase DCLK3 (Homo sapiens) (UniProt Q9C098); settings: Compound concentration 1000.0 nM
[11] = target: Ephrin type-B receptor 4 (Homo sapiens) (UniProt P54760); settings: Compound concentration 1000.0 nM
[12] = target: Mitogen-activated protein kinase 6 (Homo sapiens) (UniProt Q16659); settings: Compound concentration 1000.0 nM
[13] = target: Mitogen-activated protein kinase 4 (Homo sapiens) (UniProt P31152); settings: Compound concentration 1000.0 nM
[14] = tested on: Receptor-type tyrosine-protein kinase FLT3 (Homo sapiens), P36888 [D835H]; settings: Compound concentration 1000.0 nM
[15] = target: Hormonally up-regulated neu tumor-associated kinase (Homo sapiens) (UniProt P57058); settings: Compound concentration 1000.0 nM
[16] = target: Interleukin-1 receptor-associated kinase 4 (Homo sapiens) (UniProt Q9NWZ3); settings: Compound concentration 1000.0 nM
[17] = target: Serine/threonine-protein kinase STK11 (Homo sapiens) (UniProt Q15831); settings: Compound concentration 1000.0 nM
[18] = target: Mitogen-activated protein kinase kinase kinase kinase 5 (Homo sapiens) (UniProt Q9Y4K4); settings: Compound concentration 1000.0 nM
[19] = target: MAP/microtubule affinity-regulating kinase 3 (Homo sapiens) (UniProt P27448); settings: Compound concentration 1000.0 nM
[20] = target: MAP/microtubule affinity-regulating kinase 4 (Homo sapiens) (UniProt Q96L34); settings: Compound concentration 1000.0 nM
[21] = target: Dual specificity mitogen-activated protein kinase kinase 7 (Homo sapiens) (UniProt O14733); settings: Compound concentration 1000.0 nM
[22] = target: Mitogen-activated protein kinase kinase kinase 10 (Homo sapiens) (UniProt Q02779); settings: Compound concentration 1000.0 nM
[23] = target: Serine/threonine-protein kinase 3 (Homo sapiens) (UniProt Q13188); settings: Compound concentration 1000.0 nM
[24] = target: Serine/threonine-protein kinase mTOR (Homo sapiens) (UniProt P42345); settings: Compound concentration 1000.0 nM
[25] = target: Myosin light chain kinase, smooth muscle (Homo sapiens) (UniProt Q15746); settings: Compound concentration 1000.0 nM
[26] = target: Cyclin-dependent kinase 18 (Homo sapiens) (UniProt Q07002); settings: Compound concentration 1000.0 nM
[27] = target: Platelet-derived growth factor receptor beta (Homo sapiens) (UniProt P09619); settings: Compound concentration 1000.0 nM
[28] = target: Cyclin-dependent kinase 15 (Homo sapiens) (UniProt Q96Q40); settings: Compound concentration 1000.0 nM
[29] = target: Phosphatidylinositol 4,5-bisphosphate 3-kinase catalytic subunit beta isoform (Homo sapiens) (UniProt P42338); settings: Compound concentration 1000.0 nM
[30] = target: Serine/threonine-protein kinase PLK4 (Homo sapiens) (UniProt O00444); settings: Compound concentration 1000.0 nM
[31] = target: cAMP-dependent protein kinase catalytic subunit PRKX (Homo sapiens) (UniProt P51817); settings: Compound concentration 1000.0 nM
[32] = target: Protein-tyrosine kinase 2-beta (Homo sapiens) (UniProt Q14289); settings: Compound concentration 1000.0 nM
[33] = target: Proto-oncogene tyrosine-protein kinase ROS (Homo sapiens) (UniProt P08922); settings: Compound concentration 1000.0 nM
[34] = target: Ribosomal protein S6 kinase alpha-1 (Homo sapiens) (UniProt Q15418); settings: Compound concentration 1000.0 nM
[35] = target: Tyrosine-protein kinase SYK (Homo sapiens) (UniProt P43405); settings: Compound concentration 1000.0 nM
[36] = target: Mitogen-activated protein kinase kinase kinase 7 (Homo sapiens) (UniProt O43318); settings: Compound concentration 1000.0 nM
[37] = target: Testis-specific serine/threonine-protein kinase 1 (Homo sapiens) (UniProt Q9BXA7); settings: Compound concentration 1000.0 nM
[38] = target: Tyrosine-protein kinase receptor TYRO3 (Homo sapiens) (UniProt Q06418); settings: Compound concentration 1000.0 nM
[39] = target: Serine/threonine-protein kinase WNK1 (Homo sapiens) (UniProt Q9H4A3); settings: Compound concentration 1000.0 nM
[40] = target: Serine/threonine-protein kinase 25 (Homo sapiens) (UniProt O00506); settings: Compound concentration 1000.0 nM
[41] = target: Mitogen-activated protein kinase kinase kinase 19 (Homo sapiens) (UniProt Q56UN5); settings: Compound concentration 1000.0 nM
[42] = target: Tyrosine-protein kinase ZAP-70 (Homo sapiens) (UniProt P43403); settings: Compound concentration 1000.0 nM
[43] = target: 5-hydroxytryptamine receptor 1D (Homo sapiens) (UniProt P28221); settings: Compound concentration 10.0 uM
[44] = target: D(4) dopamine receptor (Homo sapiens) (UniProt P21917); settings: Compound concentration 10.0 uM
[45] = target: Alpha-1B adrenergic receptor (Homo sapiens) (UniProt P35368); settings: Compound concentration 10.0 uM

Chain of Interleukin-1 receptor-associated kinase 4 (Homo sapiens) (Q9NWZ3 whole entry): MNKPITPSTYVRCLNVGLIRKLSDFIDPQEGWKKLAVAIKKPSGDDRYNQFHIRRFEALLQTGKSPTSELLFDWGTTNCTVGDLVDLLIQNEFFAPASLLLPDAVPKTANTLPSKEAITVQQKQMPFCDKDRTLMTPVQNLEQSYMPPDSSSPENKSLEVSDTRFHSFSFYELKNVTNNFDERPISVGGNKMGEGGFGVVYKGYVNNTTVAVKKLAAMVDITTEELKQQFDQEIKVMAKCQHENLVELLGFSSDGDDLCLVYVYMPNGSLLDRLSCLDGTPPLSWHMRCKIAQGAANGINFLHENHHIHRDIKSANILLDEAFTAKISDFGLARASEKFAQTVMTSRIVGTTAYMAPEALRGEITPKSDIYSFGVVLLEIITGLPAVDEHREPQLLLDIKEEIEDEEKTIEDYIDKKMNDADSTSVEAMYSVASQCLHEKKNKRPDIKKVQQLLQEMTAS
Chain of Testis-specific serine/threonine-protein kinase 1 (Homo sapiens) (Q9BXA7 whole entry): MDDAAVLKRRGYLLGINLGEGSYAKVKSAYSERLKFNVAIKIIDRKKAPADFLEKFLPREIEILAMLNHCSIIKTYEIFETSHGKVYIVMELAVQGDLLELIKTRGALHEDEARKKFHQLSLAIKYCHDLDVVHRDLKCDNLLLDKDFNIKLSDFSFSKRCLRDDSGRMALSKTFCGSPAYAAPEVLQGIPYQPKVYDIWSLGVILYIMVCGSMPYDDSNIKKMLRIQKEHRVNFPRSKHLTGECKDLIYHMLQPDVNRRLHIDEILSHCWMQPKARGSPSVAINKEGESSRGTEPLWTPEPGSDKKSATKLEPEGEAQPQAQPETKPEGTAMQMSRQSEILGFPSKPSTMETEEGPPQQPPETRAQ
Chain of Myosin light chain kinase, smooth muscle (Homo sapiens) (Q15746 whole entry): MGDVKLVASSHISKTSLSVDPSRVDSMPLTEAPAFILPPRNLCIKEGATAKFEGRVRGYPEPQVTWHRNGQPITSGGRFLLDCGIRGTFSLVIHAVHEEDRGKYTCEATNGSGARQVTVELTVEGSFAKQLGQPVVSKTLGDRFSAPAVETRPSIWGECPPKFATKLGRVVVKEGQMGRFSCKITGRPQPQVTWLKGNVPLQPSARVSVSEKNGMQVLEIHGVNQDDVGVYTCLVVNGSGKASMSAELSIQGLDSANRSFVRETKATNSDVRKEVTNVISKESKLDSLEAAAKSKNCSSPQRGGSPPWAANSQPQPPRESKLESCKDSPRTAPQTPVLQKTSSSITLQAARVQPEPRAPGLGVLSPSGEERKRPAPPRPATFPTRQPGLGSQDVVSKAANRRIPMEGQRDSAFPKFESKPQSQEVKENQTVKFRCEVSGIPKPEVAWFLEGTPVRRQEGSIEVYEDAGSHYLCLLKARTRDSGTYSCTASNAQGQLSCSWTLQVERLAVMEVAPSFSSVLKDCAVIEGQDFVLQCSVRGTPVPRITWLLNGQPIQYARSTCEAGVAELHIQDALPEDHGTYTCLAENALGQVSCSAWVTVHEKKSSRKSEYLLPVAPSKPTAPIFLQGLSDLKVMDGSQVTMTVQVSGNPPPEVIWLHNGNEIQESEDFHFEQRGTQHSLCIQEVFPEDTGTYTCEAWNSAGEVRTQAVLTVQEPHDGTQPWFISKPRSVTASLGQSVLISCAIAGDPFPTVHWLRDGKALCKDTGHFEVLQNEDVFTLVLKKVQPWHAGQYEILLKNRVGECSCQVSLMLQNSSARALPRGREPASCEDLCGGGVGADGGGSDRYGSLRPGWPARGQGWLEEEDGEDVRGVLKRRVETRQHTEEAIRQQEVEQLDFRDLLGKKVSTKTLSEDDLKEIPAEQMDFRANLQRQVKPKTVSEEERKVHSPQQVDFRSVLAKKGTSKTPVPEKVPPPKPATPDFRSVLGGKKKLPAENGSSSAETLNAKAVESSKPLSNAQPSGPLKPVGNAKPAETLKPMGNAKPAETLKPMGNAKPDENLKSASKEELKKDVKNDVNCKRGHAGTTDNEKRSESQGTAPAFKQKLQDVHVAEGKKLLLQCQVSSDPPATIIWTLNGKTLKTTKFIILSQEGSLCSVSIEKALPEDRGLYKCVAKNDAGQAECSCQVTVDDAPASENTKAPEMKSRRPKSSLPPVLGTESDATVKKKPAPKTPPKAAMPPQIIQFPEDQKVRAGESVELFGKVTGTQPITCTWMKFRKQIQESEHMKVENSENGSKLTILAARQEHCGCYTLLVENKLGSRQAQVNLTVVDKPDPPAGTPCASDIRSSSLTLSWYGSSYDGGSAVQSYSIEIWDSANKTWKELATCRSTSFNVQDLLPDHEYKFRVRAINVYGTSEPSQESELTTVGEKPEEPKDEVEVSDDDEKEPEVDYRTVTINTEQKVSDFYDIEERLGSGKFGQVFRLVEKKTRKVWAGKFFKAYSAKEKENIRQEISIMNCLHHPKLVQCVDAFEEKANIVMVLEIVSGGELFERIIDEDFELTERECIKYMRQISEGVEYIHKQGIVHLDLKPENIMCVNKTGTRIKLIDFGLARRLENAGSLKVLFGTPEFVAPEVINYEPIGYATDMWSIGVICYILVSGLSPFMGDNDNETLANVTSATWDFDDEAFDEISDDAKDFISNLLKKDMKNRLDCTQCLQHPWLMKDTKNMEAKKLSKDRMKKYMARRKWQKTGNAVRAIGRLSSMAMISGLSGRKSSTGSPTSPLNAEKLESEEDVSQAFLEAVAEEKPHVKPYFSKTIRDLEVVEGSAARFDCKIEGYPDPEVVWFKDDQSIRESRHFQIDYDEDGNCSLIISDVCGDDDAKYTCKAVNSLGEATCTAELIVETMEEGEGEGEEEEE
Chain of Mitogen-activated protein kinase kinase kinase 19 (Homo sapiens) (Q56UN5 whole entry): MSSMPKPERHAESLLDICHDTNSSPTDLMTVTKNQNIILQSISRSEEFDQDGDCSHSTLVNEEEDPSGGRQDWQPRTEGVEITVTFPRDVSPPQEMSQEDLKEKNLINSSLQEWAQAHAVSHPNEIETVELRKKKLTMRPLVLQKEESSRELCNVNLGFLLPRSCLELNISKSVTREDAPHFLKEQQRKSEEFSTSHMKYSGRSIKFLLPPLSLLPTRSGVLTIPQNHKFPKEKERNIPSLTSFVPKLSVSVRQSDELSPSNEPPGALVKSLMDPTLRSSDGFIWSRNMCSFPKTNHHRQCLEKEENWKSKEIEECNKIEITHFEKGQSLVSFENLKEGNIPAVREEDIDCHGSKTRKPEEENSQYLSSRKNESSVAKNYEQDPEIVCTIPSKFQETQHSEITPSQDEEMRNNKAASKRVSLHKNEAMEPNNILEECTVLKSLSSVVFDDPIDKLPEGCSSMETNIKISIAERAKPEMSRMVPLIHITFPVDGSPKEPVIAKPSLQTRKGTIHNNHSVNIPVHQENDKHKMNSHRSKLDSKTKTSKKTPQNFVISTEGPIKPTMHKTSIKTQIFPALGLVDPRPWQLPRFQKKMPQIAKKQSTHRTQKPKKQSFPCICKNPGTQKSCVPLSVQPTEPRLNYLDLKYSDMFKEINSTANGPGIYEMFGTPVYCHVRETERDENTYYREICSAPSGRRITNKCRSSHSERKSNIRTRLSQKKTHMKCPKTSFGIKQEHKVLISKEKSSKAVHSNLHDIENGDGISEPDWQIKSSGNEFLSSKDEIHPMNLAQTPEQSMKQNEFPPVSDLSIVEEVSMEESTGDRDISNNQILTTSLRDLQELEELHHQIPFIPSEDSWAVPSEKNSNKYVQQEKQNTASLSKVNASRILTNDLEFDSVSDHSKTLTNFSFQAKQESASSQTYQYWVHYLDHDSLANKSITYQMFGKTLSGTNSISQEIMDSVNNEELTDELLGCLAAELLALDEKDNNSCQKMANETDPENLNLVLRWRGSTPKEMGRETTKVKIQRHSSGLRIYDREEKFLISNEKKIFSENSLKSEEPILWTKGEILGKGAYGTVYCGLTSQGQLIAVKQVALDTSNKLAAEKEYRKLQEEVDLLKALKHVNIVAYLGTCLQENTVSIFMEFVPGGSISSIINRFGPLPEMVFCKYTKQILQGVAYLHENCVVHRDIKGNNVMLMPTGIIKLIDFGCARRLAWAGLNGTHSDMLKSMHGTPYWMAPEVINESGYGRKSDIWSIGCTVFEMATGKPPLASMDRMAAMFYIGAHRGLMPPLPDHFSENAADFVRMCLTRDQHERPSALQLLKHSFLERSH
Chain of Casein kinase I isoform alpha (Homo sapiens) (P48729 2-337 limits assumed): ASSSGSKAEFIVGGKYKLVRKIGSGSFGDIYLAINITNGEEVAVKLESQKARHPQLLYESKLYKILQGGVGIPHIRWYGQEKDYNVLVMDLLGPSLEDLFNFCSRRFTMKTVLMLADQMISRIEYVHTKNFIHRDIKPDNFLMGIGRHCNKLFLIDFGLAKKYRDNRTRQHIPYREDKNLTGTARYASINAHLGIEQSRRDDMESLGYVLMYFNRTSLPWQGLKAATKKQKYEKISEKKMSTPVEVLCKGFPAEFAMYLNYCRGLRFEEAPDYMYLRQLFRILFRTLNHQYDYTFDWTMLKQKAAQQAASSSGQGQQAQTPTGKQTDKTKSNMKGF
Chain of 5-hydroxytryptamine receptor 1D (Homo sapiens) (P28221 whole entry): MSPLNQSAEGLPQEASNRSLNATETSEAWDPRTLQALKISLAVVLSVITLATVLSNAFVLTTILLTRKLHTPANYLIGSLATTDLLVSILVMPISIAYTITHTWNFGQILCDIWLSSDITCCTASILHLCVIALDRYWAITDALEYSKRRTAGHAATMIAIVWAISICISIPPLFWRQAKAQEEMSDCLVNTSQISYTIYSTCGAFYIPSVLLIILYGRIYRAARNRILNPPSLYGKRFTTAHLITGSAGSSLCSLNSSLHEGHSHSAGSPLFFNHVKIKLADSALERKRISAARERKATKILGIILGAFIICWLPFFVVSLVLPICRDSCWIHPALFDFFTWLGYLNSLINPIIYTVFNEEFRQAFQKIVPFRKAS

C[C@H](c1cccc(C#N)c1)n1cc(Cl)cc(C(N)=O)c1=N [(R)-9s]
residual activity [1]: 100%
residual activity [2]: 90%
residual activity [3]: 100%
residual activity [4]: 89%
residual activity [5]: 100%
residual activity [6]: 96%
residual activity [7]: 100%
residual activity [8]: 86%
residual activity [9]: 100%
residual activity [10]: 99%
residual activity [11]: 89%
residual activity [12]: 0%
residual activity [13]: 82%
residual activity [14]: 80%
residual activity [15]: 89%
residual activity [16]: 82%
residual activity [17]: 96%
residual activity [18]: 100%
residual activity [19]: 100%
residual activity [20]: 99%
residual activity [21]: 72%
residual activity [22]: 100%
residual activity [23]: 84%
residual activity [24]: 91%
residual activity [25]: 100%
residual activity [26]: 100%
residual activity [27]: 83%
residual activity [28]: 84%
residual activity [29]: 94%
residual activity [30]: 100%
residual activity [31]: 100%
residual activity [32]: 100%
residual activity [33]: 100%
residual activity [34]: 97%
residual activity [35]: 100%
residual activity [36]: 77%
residual activity [37]: 96%
residual activity [38]: 33%
residual activity [39]: 89%
residual activity [40]: 100%
residual activity [41]: 76%
residual activity [42]: 92%
inhibition [43]: 34.1%
inhibition [44]: 6.56%
inhibition [45]: -1.16%

C[C@@H](c1cccc(C#N)c1)n1cc(Cl)cc(C(N)=O)c1=N [(S)-9s]
residual activity [1]: 100%
residual activity [2]: 82%
residual activity [3]: 100%
residual activity [4]: 100%
residual activity [5]: 100%
residual activity [6]: 100%
residual activity [7]: 97%
residual activity [8]: 81%
residual activity [9]: 100%
residual activity [10]: 86%
residual activity [11]: 96%
residual activity [12]: 100%
residual activity [13]: 90%
residual activity [14]: 81%
residual activity [15]: 100%
residual activity [16]: 87%
residual activity [17]: 74%
residual activity [18]: 96%
residual activity [19]: 98%
residual activity [20]: 100%
residual activity [21]: 99%
residual activity [22]: 77%
residual activity [23]: 96%
residual activity [24]: 96%
residual activity [25]: 88%
residual activity [26]: 100%
residual activity [27]: 84%
residual activity [28]: 89%
residual activity [29]: 93%
residual activity [30]: 100%
residual activity [31]: 100%
residual activity [32]: 87%
residual activity [33]: 100%
residual activity [34]: 100%
residual activity [35]: 96%
residual activity [36]: 100%
residual activity [37]: 100%
residual activity [38]: 68%
residual activity [39]: 97%
residual activity [40]: 100%
residual activity [41]: 94%
residual activity [42]: 84%
inhibition [43]: 3.77%
inhibition [44]: 10.1%
inhibition [45]: -5.97%

From ChEMBL document CHEMBL4507301 (2021)
